# Measurements: patent US20030139391A1 (priority 2000, published 2003)
# Tested on: Patients diagnosed with Alzheimer's Disease
# Assay: Adverse events and discontinuation in 5-month slow-titration trial
# Type: in vivo, human
# Procedure: Subjects in the Placebo group received 21 weeks (5 months) of placebo medication.
# The safety of the drug was also monitored throughout the study. Blood samples for biochemistry and haematology and random urine sample for urinalysis were taken at each visit and at completion for all efficacy testing. Systolic and diastolic blood pressure were measured in the sitting position, pulse and vital signs were recorded at each visit.
compound,measurement,setting,value
"COc1ccc2c3c1O[C@H]1C[C@@H](O)C=C[C@@]31CCN(C)C2 [GAL, galantamine]",Serious adverse event Cardiac failure: number,16 mg/day,3
same,Serious adverse event Dehydration: %,16 mg/day,(1.1%)
same,Serious adverse event Dehydration: number,16 mg/day,3
same,Serious adverse event Diarrhea: %,16 mg/day,(1.1%)
same,Serious adverse event Diarrhea: number,16 mg/day,3
same,Serious adverse event Dyspnea: %,16 mg/day,(0.7%)
same,Serious adverse event Dyspnea: number,16 mg/day,2
same,Serious adverse event Fall: %,16 mg/day,(0.4%)
same,Serious adverse event Fall: number,16 mg/day,1
same,Serious adverse event Gi haemorrhage: %,16 mg/day,(0.0%)
same,Serious adverse event Gi haemorrhage: number,16 mg/day,0
same,Serious adverse event Injury: %,16 mg/day,(0.4%)
same,Serious adverse event Injury: number,16 mg/day,1
same,Serious adverse event Myocardial infarction: %,16 mg/day,(0.4%)
same,Serious adverse event Myocardial infarction: number,16 mg/day,1
same,Serious adverse event Nausea: %,16 mg/day,(0.7%)
same,Serious adverse event Nausea: number,16 mg/day,2
same,Serious adverse event Pneumonia: %,16 mg/day,(0.7%)
same,Serious adverse event Pneumonia: number,16 mg/day,2
same,Serious adverse event Sepsis: %,16 mg/day,(0.0%)
same,Serious adverse event Sepsis: number,16 mg/day,0
same,Serious adverse event Surgical intervention: %,16 mg/day,(1.1%)
same,Serious adverse event Surgical intervention: number,16 mg/day,3
same,Serious adverse event Syncope: %,16 mg/day,(1.4%)
same,Serious adverse event Syncope: number,16 mg/day,4
same,Serious adverse event Thrombophlebitis deep: %,16 mg/day,(0.0%)
same,Serious adverse event Thrombophlebitis deep: number,16 mg/day,0
same,Serious adverse event Transient ischemic attack: %,16 mg/day,(0.7%)
same,Serious adverse event Transient ischemic attack: number,16 mg/day,2
same,Serious adverse event Urinary tracq infection: %,16 mg/day,(0.7%)
same,Serious adverse event Urinary tracq infection: number,16 mg/day,2
same,Serious adverse event Vomiting: %,16 mg/day,(0.7%)
same,Serious adverse event Vomiting: number,16 mg/day,2
same,Syncope: % of patients,16 mg/day,(1.8%)
same,Syncope: number of patients,16 mg/day,5
same,Total discontinued (DC): %,16 mg/day,22%
same,Total discontinued (DC): N,16 mg/day,60
same,Total patients with any SAE: %,16 mg/day,(10.0%)
same,Total patients with any SAE: number,16 mg/day,28
same,Urinary tract infection: % of patients,16 mg/day,(8.2%)
same,Urinary tract infection: number of patients,16 mg/day,23
same,Vomiting: % of patients,16 mg/day,(6.1%)
same,Vomiting: number of patients,16 mg/day,17
same,Weight decrease: % of patients,16 mg/day,(5.4%)
same,Weight decrease: number of patients,16 mg/day,15
same,Agitation: % of patients,24 mg/day,(8.1%)
same,Agitation: number of patients,24 mg/day,22
same,Anorexia: % of patients,24 mg/day,(8.8%)
same,Anorexia: number of patients,24 mg/day,24
same,Bradycardia: % of patients,24 mg/day,(2.9%)
same,Bradycardia: number of patients,24 mg/day,8
same,Convulsions: % of patients,24 mg/day,(0.4%)
same,Convulsions: number of patients,24 mg/day,1
same,DC due to adverse event: %,24 mg/day,10%
same,DC due to adverse event: N,24 mg/day,27
same,DC due to inefficacy: %,24 mg/day,1%
same,DC due to inefficacy: N,24 mg/day,2
same,Depression: % of patients,24 mg/day,(8.%)
same,Depression: number of patients,24 mg/day,22
same,Diarrhea: % of patients,24 mg/day,(5.5%)
same,Diarrhea: number of patients,24 mg/day,15
same,Dizziness: % of patients,24 mg/day,(7.0%)
same,Dizziness: number of patients,24 mg/day,19
same,Dyspepsia: % of patients,24 mg/day,(5.5%)
same,Dyspepsia: number of patients,24 mg/day,15
same,Edema peripheral: % of patients,24 mg/day,(2.6%)
same,Edema peripheral: number of patients,24 mg/day,7
same,Fall: % of patients,24 mg/day,(4.4%)
same,Fall: number of patients,24 mg/day,12
same,Fatigue: % of patients,24 mg/day,(4.8%)
same,Fatigue: number of patients,24 mg/day,13
same,Headache: % of patients,24 mg/day,(4.8%)
same,Headache: number of patients,24 mg/day,13
same,Injury: % of patients,24 mg/day,(5.9%)
same,Injury: number of patients,24 mg/day,16
same,Muscle weakness: % of patients,24 mg/day,(0.4%)
same,Muscle weakness: number of patients,24 mg/day,1
same,Nausea: % of patients,24 mg/day,(16.5%)
same,Nausea: number of patients,24 mg/day,45
same,Rhinitis: % of patients,24 mg/day,(4.0%)
same,Rhinitis: number of patients,24 mg/day,11
same,Serious adverse event Abdominal pain: %,24 mg/day,(0.0%)
same,Serious adverse event Abdominal pain: number,24 mg/day,0
same,Serious adverse event Agitation: %,24 mg/day,(0.0%)
same,Serious adverse event Agitation: number,24 mg/day,0
same,Serious adverse event Asthenia: %,24 mg/day,(0.4%)
same,Serious adverse event Asthenia: number,24 mg/day,1
same,Serious adverse event Basal cell carcinoma: %,24 mg/day,(0.7%)
same,Serious adverse event Basal cell carcinoma: number,24 mg/day,2
same,Serious adverse event Breast neoplasm female: %,24 mg/day,(0.0%)
same,Serious adverse event Breast neoplasm female: number,24 mg/day,0
same,Serious adverse event Cardiac failure: %,24 mg/day,(0.0%)
same,Serious adverse event Cardiac failure: number,24 mg/day,0
same,Serious adverse event Dehydration: %,24 mg/day,(0.0%)
same,Serious adverse event Dehydration: number,24 mg/day,0
same,Serious adverse event Diarrhea: %,24 mg/day,(0.0%)
same,Serious adverse event Diarrhea: number,24 mg/day,0
same,Serious adverse event Dyspnea: %,24 mg/day,(1.1%)
same,Serious adverse event Dyspnea: number,24 mg/day,3.
same,Serious adverse event Fall: %,24 mg/day,(1.1%)
same,Serious adverse event Fall: number,24 mg/day,3
same,Serious adverse event Gi haemorrhage: %,24 mg/day,(0.7%)
same,Serious adverse event Gi haemorrhage: number,24 mg/day,2
same,Serious adverse event Injury: %,24 mg/day,(1.8%)
same,Serious adverse event Injury: number,24 mg/day,5
same,Serious adverse event Myocardial infarction: %,24 mg/day,(0.4%)
same,Serious adverse event Myocardial infarction: number,24 mg/day,1
same,Serious adverse event Nausea: %,24 mg/day,(0.0%)
same,Serious adverse event Nausea: number,24 mg/day,0
same,Serious adverse event Pneumonia: %,24 mg/day,(1.1%)
same,Serious adverse event Pneumonia: number,24 mg/day,3
same,Serious adverse event Sepsis: %,24 mg/day,(0.0%)
same,Serious adverse event Sepsis: number,24 mg/day,0
same,Serious adverse event Surgical intervention: %,24 mg/day,(0.0%)
same,Serious adverse event Surgical intervention: number,24 mg/day,0
same,Serious adverse event Syncope: %,24 mg/day,(1.8%)
same,Serious adverse event Syncope: number,24 mg/day,5
same,Serious adverse event Thrombophlebitis deep: %,24 mg/day,(0.7%)
same,Serious adverse event Thrombophlebitis deep: number,24 mg/day,2
same,Serious adverse event Transient ischemic attack: %,24 mg/day,(0.0%)
same,Serious adverse event Transient ischemic attack: number,24 mg/day,0
same,Serious adverse event Urinary tracq infection: %,24 mg/day,(0.0%)
same,Serious adverse event Urinary tracq infection: number,24 mg/day,0
same,Serious adverse event Vomiting: %,24 mg/day,(0.4%)
same,Serious adverse event Vomiting: number,24 mg/day,1
same,Syncope: % of patients,24 mg/day,(3.3%)
same,Syncope: number of patients,24 mg/day,9
same,Total discontinued (DC): %,24 mg/day,22%
same,Total discontinued (DC): N,24 mg/day,61
same,Total patients with any SAE: %,24 mg/day,(12.8%)
same,Total patients with any SAE: number,24 mg/day,35
same,Urinary tract infection: % of patients,24 mg/day,(8.1%)
same,Urinary tract infection: number of patients,24 mg/day,22
same,Vomiting: % of patients,24 mg/day,(9.9%)
same,Vomiting: number of patients,24 mg/day,27
same,Weight decrease: % of patients,24 mg/day,(4.8%)
same,Weight decrease: number of patients,24 mg/day,13
